Experimental data from patent US20110028686A1, “Protein binding miniature proteins” (Yale University, priority 2000, published 2011).
Square brackets hold non-standard residues; d marks the D form. Peptide text beside a SMILES is read from it. * marks the point of attachment. Fluorescein(5-NHCOCH2) = O=C(C*)Nc1ccc2c(c1)C(=O)OC21c2ccc(O)cc2Oc2cc(O)ccc21; pS = N[C@@H](COP(=O)(O)O)C(=O)O; Sar = CNCC(=O)O

Molecular target: T1, CBP KIX wild type (Mus musculus, UniProt P45481)
T1 construct: made in house; host or cells: E. coli BL21(DE3) pArg
T1 sequence (P45481 586-665 limits assumed): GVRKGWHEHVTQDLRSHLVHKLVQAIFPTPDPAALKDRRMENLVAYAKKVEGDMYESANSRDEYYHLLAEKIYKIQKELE
Test: Equilibrium fluorescence polarization, wild type CBP KIX
Type: binding
Settings: 25° C.

How did the Kd turn out when `CC[C@H](C)[C@H](NC(=O)[C@H](Cc1ccc(O)cc1)NC(=O)[C@H](C)NC(=O)[C@H](Cc1ccccc1)NC(=O)[C@H](COP(=O)(O)O)NC(=O)[C@H](CC(C)C)NC(=O)[C@H](CCCNC(=N)N)NC(=O)[C@H](CCCNC(=N)N)NC(=O)[C@@H](NC(=O)[C@@H]1CCCN1C(=O)[C@H](C)NC(=O)[C@H](CC(=O)O)NC(=O)[C@H](CC(=O)O)NC(=O)CNC(=O)[C@@H]1CCCN1C(=O)[C@H](Cc1ccc(O)cc1)NC(=O)[C@@H](NC(=O)[C@@H]1CCCN1C(=O)[C@H](CCC(N)=O)NC(=O)[C@H](CO)NC(=O)[C@@H]1CCCN1C(=O)CN)[C@@H](C)O)C(C)C)C(=O)N[C@@H](CC(C)C)C(=O)N[C@@H](CC(C)C)C(=O)N[C@@H](CC(=O)O)C(=O)N[C@@H](CC(C)C)C(=O)N[C@@H](Cc1ccc(O)cc1)C(=O)N[C@@H](CC(C)C)C(=O)N[C@@H](CC(=O)O)C(=O)N[C@@H](C)C(=O)N1CCC[C@H]1C(=O)NCC(=O)N[C@H](C(=O)N[C@@H](CSCC(=O)Nc1ccc2c(c1)C(=O)OC21c2ccc(O)cc2Oc2cc(O)ccc21)C(N)=O)C(C)C` [F20A] (H-GPSQPTYPGDDAPVRRL[pS]FAYILLDLYLDAPGVC(Fluorescein(5-NHCOCH2))-NH2) was run?
Its Kd is 2550 ± 250 nM.

How did the Kd turn out when `CC[C@H](C)[C@H](NC(=O)[C@H](Cc1ccc(O)cc1)NC(=O)[C@H](Cc1ccccc1)NC(=O)[C@H](Cc1ccccc1)NC(=O)[C@H](COP(=O)(O)O)NC(=O)[C@H](C)NC(=O)[C@H](CCCNC(=N)N)NC(=O)[C@H](CCCNC(=N)N)NC(=O)[C@@H](NC(=O)[C@@H]1CCCN1C(=O)[C@H](C)NC(=O)[C@H](CC(=O)O)NC(=O)[C@H](CC(=O)O)NC(=O)CNC(=O)[C@@H]1CCCN1C(=O)[C@H](Cc1ccc(O)cc1)NC(=O)[C@@H](NC(=O)[C@@H]1CCCN1C(=O)[C@H](CCC(N)=O)NC(=O)[C@H](CO)NC(=O)[C@@H]1CCCN1C(=O)CN)[C@@H](C)O)C(C)C)C(=O)N[C@@H](CC(C)C)C(=O)N[C@@H](CC(C)C)C(=O)N[C@@H](CC(=O)O)C(=O)N[C@@H](CC(C)C)C(=O)N[C@@H](Cc1ccc(O)cc1)C(=O)N[C@@H](CC(C)C)C(=O)N[C@@H](CC(=O)O)C(=O)N[C@@H](C)C(=O)N1CCC[C@H]1C(=O)NCC(=O)N[C@H](C(=O)N[C@@H](CSCC(=O)Nc1ccc2c(c1)C(=O)OC21c2ccc(O)cc2Oc2cc(O)ccc21)C(N)=O)C(C)C` [L17A] (H-GPSQPTYPGDDAPVRRA[pS]FFYILLDLYLDAPGVC(Fluorescein(5-NHCOCH2))-NH2) was run?
The Kd was 680 ± 50 nM.

`CC[C@H](C)[C@H](NC(=O)[C@H](Cc1ccc(O)cc1)NC(=O)[C@H](Cc1ccccc1)NC(=O)[C@H](Cc1ccccc1)NC(=O)[C@H](COP(=O)(O)O)NC(=O)[C@H](CC(C)C)NC(=O)[C@H](CCCNC(=N)N)NC(=O)[C@H](CCCNC(=N)N)NC(=O)[C@@H](NC(=O)[C@@H]1CCCN1C(=O)[C@H](C)NC(=O)[C@H](CC(=O)O)NC(=O)[C@H](CC(=O)O)NC(=O)CNC(=O)[C@@H]1CCCN1C(=O)[C@H](Cc1ccc(O)cc1)NC(=O)[C@@H](NC(=O)[C@@H]1CCCN1C(=O)[C@H](CCC(N)=O)NC(=O)[C@H](CO)NC(=O)[C@@H]1CCCN1C(=O)CN)[C@@H](C)O)C(C)C)C(=O)N[C@@H](CC(C)C)C(=O)N[C@@H](C)C(=O)N[C@@H](CC(=O)O)C(=O)N[C@@H](CC(C)C)C(=O)N[C@@H](Cc1ccc(O)cc1)C(=O)N[C@@H](CC(C)C)C(=O)N[C@@H](CC(=O)O)C(=O)N[C@@H](C)C(=O)N1CCC[C@H]1C(=O)NCC(=O)N[C@H](C(=O)N[C@@H](CSCC(=O)Nc1ccc2c(c1)C(=O)OC21c2ccc(O)cc2Oc2cc(O)ccc21)C(N)=O)C(C)C` [L24A] (H-GPSQPTYPGDDAPVRRL[pS]FFYILADLYLDAPGVC(Fluorescein(5-NHCOCH2))-NH2) was tested. Which Kd did it give?
The Kd was 1160 ± 70 nM.

For `CC[C@H](C)[C@H](NC(=O)[C@H](Cc1ccc(O)cc1)NC(=O)[C@H](Cc1ccccc1)NC(=O)[C@H](Cc1ccccc1)NC(=O)[C@H](COP(=O)(O)O)NC(=O)[C@H](CC(C)C)NC(=O)[C@H](CCCNC(=N)N)NC(=O)[C@H](CCCNC(=N)N)NC(=O)[C@@H](NC(=O)[C@@H]1CCCN1C(=O)[C@H](C)NC(=O)[C@H](CC(=O)O)NC(=O)[C@H](CC(=O)O)NC(=O)CNC(=O)[C@@H]1CCCN1C(=O)[C@H](Cc1ccc(O)cc1)NC(=O)[C@@H](NC(=O)[C@@H]1CCCN1C(=O)[C@H](CCC(N)=O)NC(=O)[C@H](CO)NC(=O)[C@@H]1CCCN1C(=O)CN)[C@@H](C)O)C(C)C)C(=O)N[C@@H](CC(C)C)C(=O)N[C@@H](CC(C)C)C(=O)N[C@@H](CC(=O)O)C(=O)N[C@@H](CC(C)C)C(=O)N[C@@H](Cc1ccc(O)cc1)C(=O)N[C@@H](C)C(=O)N[C@@H](CC(=O)O)C(=O)N[C@@H](C)C(=O)N1CCC[C@H]1C(=O)NCC(=O)N[C@H](C(=O)N[C@@H](CSCC(=O)Nc1ccc2c(c1)C(=O)OC21c2ccc(O)cc2Oc2cc(O)ccc21)C(N)=O)C(C)C` [L28A] (H-GPSQPTYPGDDAPVRRL[pS]FFYILLDLYADAPGVC(Fluorescein(5-NHCOCH2))-NH2), which Kd is on record?
Its Kd is 830 ± 110 nM.

For `CC[C@H](C)[C@H](NC(=O)[C@H](Cc1ccc(O)cc1)NC(=O)[C@H](Cc1ccccc1)NC(=O)[C@H](Cc1ccccc1)NC(=O)[C@H](COP(=O)(O)O)NC(=O)[C@H](CC(C)C)NC(=O)[C@H](CCCNC(=N)N)NC(=O)[C@H](CCCNC(=N)N)NC(=O)[C@@H](NC(=O)[C@@H]1CCCN1C(=O)[C@H](C)NC(=O)[C@H](CC(=O)O)NC(=O)[C@H](CC(=O)O)NC(=O)CNC(=O)[C@@H]1CCCN1C(=O)[C@H](Cc1ccc(O)cc1)NC(=O)[C@@H](NC(=O)[C@@H]1CCCN1C(=O)[C@H](CCC(N)=O)NC(=O)[C@H](CO)NC(=O)[C@H](C)NC(=O)CN)[C@@H](C)O)C(C)C)C(=O)N[C@@H](CC(C)C)C(=O)N[C@@H](CC(C)C)C(=O)N[C@@H](CC(=O)O)C(=O)N[C@@H](CC(C)C)C(=O)N[C@@H](Cc1ccc(O)cc1)C(=O)N[C@@H](CC(C)C)C(=O)N[C@@H](CC(=O)O)C(=O)N[C@@H](C)C(=O)N1CCC[C@H]1C(=O)NCC(=O)N[C@H](C(=O)N[C@@H](CSCC(=O)Nc1ccc2c(c1)C(=O)OC21c2ccc(O)cc2Oc2cc(O)ccc21)C(N)=O)C(C)C` [P2A] (H-GASQPTYPGDDAPVRRL[pS]FFYILLDLYLDAPGVC(Fluorescein(5-NHCOCH2))-NH2), which Kd is on record?
Its Kd is 870 ± 40 nM.

How did the Kd turn out when `CC[C@H](C)[C@H](NC(=O)[C@H](Cc1ccc(O)cc1)NC(=O)[C@H](Cc1ccccc1)NC(=O)[C@H](Cc1ccccc1)NC(=O)[C@H](COP(=O)(O)O)NC(=O)[C@H](CC(C)C)NC(=O)[C@H](CCCNC(=N)N)NC(=O)[C@H](CCCNC(=N)N)NC(=O)[C@@H](NC(=O)[C@@H]1CCCN1C(=O)[C@H](C)NC(=O)[C@H](CC(=O)O)NC(=O)[C@H](CC(=O)O)NC(=O)CNC(=O)[C@@H]1CCCN1C(=O)[C@H](Cc1ccc(O)cc1)NC(=O)[C@@H](NC(=O)[C@@H]1CCCN1C(=O)[C@H](CCC(N)=O)NC(=O)[C@H](CO)NC(=O)CN(C)C(=O)CN)[C@@H](C)O)C(C)C)C(=O)N[C@@H](CC(C)C)C(=O)N[C@@H](CC(C)C)C(=O)N[C@@H](CC(=O)O)C(=O)N[C@@H](CC(C)C)C(=O)N[C@@H](Cc1ccc(O)cc1)C(=O)N[C@@H](CC(C)C)C(=O)N[C@@H](CC(=O)O)C(=O)N[C@@H](C)C(=O)N1CCC[C@H]1C(=O)NCC(=O)N[C@H](C(=O)N[C@@H](CSCC(=O)Nc1ccc2c(c1)C(=O)OC21c2ccc(O)cc2Oc2cc(O)ccc21)C(N)=O)C(C)C` [P2Z] (H-G[Sar]SQPTYPGDDAPVRRL[pS]FFYILLDLYLDAPGVC(Fluorescein(5-NHCOCH2))-NH2) was run?
Its Kd is 830 ± 80 nM.

For `CC[C@H](C)[C@H](NC(=O)[C@H](Cc1ccc(O)cc1)NC(=O)[C@H](Cc1ccccc1)NC(=O)[C@H](Cc1ccccc1)NC(=O)[C@H](COP(=O)(O)O)NC(=O)[C@H](CC(C)C)NC(=O)[C@H](CCCNC(=N)N)NC(=O)[C@H](CCCNC(=N)N)NC(=O)[C@@H](NC(=O)[C@@H]1CCCN1C(=O)[C@H](C)NC(=O)[C@H](CC(=O)O)NC(=O)[C@H](CC(=O)O)NC(=O)CNC(=O)[C@@H]1CCCN1C(=O)[C@H](Cc1ccc(O)cc1)NC(=O)[C@@H](NC(=O)[C@H](C)NC(=O)[C@H](CCC(N)=O)NC(=O)[C@H](CO)NC(=O)[C@@H]1CCCN1C(=O)CN)[C@@H](C)O)C(C)C)C(=O)N[C@@H](CC(C)C)C(=O)N[C@@H](CC(C)C)C(=O)N[C@@H](CC(=O)O)C(=O)N[C@@H](CC(C)C)C(=O)N[C@@H](Cc1ccc(O)cc1)C(=O)N[C@@H](CC(C)C)C(=O)N[C@@H](CC(=O)O)C(=O)N[C@@H](C)C(=O)N1CCC[C@H]1C(=O)NCC(=O)N[C@H](C(=O)N[C@@H](CSCC(=O)Nc1ccc2c(c1)C(=O)OC21c2ccc(O)cc2Oc2cc(O)ccc21)C(N)=O)C(C)C` [P5A] (H-GPSQATYPGDDAPVRRL[pS]FFYILLDLYLDAPGVC(Fluorescein(5-NHCOCH2))-NH2), which Kd is on record?
The Kd was 1020 ± 90 nM.

Which Kd does the source give for `CC[C@H](C)[C@H](NC(=O)[C@H](Cc1ccc(O)cc1)NC(=O)[C@H](Cc1ccccc1)NC(=O)[C@H](Cc1ccccc1)NC(=O)[C@H](COP(=O)(O)O)NC(=O)[C@H](CC(C)C)NC(=O)[C@H](CCCNC(=N)N)NC(=O)[C@H](CCCNC(=N)N)NC(=O)[C@@H](NC(=O)[C@@H]1CCCN1C(=O)[C@H](C)NC(=O)[C@H](CC(=O)O)NC(=O)[C@H](CC(=O)O)NC(=O)CNC(=O)[C@@H]1CCCN1C(=O)[C@H](Cc1ccc(O)cc1)NC(=O)[C@@H](NC(=O)CN(C)C(=O)[C@H](CCC(N)=O)NC(=O)[C@H](CO)NC(=O)[C@@H]1CCCN1C(=O)CN)[C@@H](C)O)C(C)C)C(=O)N[C@@H](CC(C)C)C(=O)N[C@@H](CC(C)C)C(=O)N[C@@H](CC(=O)O)C(=O)N[C@@H](CC(C)C)C(=O)N[C@@H](Cc1ccc(O)cc1)C(=O)N[C@@H](CC(C)C)C(=O)N[C@@H](CC(=O)O)C(=O)N[C@@H](C)C(=O)N1CCC[C@H]1C(=O)NCC(=O)N[C@H](C(=O)N[C@@H](CSCC(=O)Nc1ccc2c(c1)C(=O)OC21c2ccc(O)cc2Oc2cc(O)ccc21)C(N)=O)C(C)C` [P5Z] (H-GPSQ[Sar]TYPGDDAPVRRL[pS]FFYILLDLYLDAPGVC(Fluorescein(5-NHCOCH2))-NH2) here?
The Kd was 800 ± 30 nM.
